The results in this text go back to US11852632B2, “Cancer test device, cancer test method, and staining agent for use in cancer test” (MIE UNIVERSITY, priority 2016, dated 2023).

Like-named read-outs stand apart in the source and are kept apart here.

Data set [1] has as its system cancer tissue. It is filed as in vivo, laboratory mouse. Particulars: mouse; for depth to which the tissue is stained: in vivo. The procedure:
(§1) A laboratory mouse was used as the living body. […] The staining period was set at 5 minutes.

Data set [2] deals with healthy mucosa tissue. Set-up: species or system laboratory mouse. Particulars: mouse, in vivo. Here is the method: as §1
Data set [3] addresses T1, cancer-related gene product STAT3 (Mus musculus, UniProt P42227).
T1 construct: used to stain the expressed STAT3-family cancer-related gene product in the living cell; from tissue; host or cells: inner wall of the large intestine of a living laboratory mouse (cancerous and healthy sites)
Nature of the data set: Curcumin living body staining compared with anti-STAT3 antibody immunostaining of the same site, confocal laser microscope. The format is in vivo, laboratory mouse. The settings on record: 1%-curcumin then 1%-Acid Red, FIG. 4A (b) versus (e). The source says:
The sections (a), (b), and (c) of FIG. 4A are images of a sample that is a double-stained living cell group of the inner wall of the intestine of a living laboratory mouse produced by staining the inner wall of the intestine with a 1%-curcumin solution and then staining the curcumin-stained inner wall with 1%-Acid Red (C27H29N2NaO7S2). A confocal laser microscope was used as the image device.
It is therefore determined that the site containing the cell group heavily stained with the curcumin stain is ultra-early cancer. The three panels (d), (e), and (f) in the lower row of FIG. 4A show images of the same site of the large intestine of the digestive tract of the laboratory mouse imaged in the same living body staining as that in the upper row, fixed with formalin, and then imaged in the fluorescence antibody technique. […] The section (f) is a (d)+(e) superimposed image.
The sections (d), (e), and (f) of FIG. 4A are produced by fixing the intestine of the laboratory mouse described above with formalin, then immunostaining the intestine with an anti-STAT3 antibody that bonds to the STAT3-family cancer-related gene product, and imaging the same location as those surrounded by the white frames in the sections (a), (b), and (c). In the sections (d) to (f), the samples were fixed with formalin and therefore slightly shrunk.

T1 sequence (P42227 whole entry): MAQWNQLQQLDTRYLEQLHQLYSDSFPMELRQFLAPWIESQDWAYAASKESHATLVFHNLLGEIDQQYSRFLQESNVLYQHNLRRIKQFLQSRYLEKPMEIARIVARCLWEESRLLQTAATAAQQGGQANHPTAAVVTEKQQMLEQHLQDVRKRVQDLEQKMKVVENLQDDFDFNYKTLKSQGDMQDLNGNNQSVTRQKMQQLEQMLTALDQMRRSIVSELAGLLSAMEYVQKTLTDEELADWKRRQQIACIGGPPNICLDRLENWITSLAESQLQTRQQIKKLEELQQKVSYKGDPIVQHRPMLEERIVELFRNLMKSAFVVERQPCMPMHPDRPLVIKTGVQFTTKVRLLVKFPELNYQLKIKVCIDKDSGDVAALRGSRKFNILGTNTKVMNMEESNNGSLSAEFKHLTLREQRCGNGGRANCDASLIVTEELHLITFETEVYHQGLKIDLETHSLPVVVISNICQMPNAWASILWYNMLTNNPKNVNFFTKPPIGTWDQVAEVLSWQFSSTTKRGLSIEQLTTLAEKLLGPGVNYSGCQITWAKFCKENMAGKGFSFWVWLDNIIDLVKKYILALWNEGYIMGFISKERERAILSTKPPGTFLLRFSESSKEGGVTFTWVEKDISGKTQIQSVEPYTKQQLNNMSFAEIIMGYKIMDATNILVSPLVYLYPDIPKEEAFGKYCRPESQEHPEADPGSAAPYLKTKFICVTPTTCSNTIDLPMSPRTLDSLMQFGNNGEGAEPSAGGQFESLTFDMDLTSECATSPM

For the molecule `CCN(CC)c1ccc2c(-c3ccc(S(=O)(=O)[O-])cc3S(=O)(=O)[O-])c3ccc(=[N+](CC)CC)cc-3oc2c1.[Na+]` [Acid Red], in data set [1], the “permeability in the cancer tissue compared with the healthy mucosa tissue” value is listed as “lower permeability”. The “depth to which the tissue is stained” value is given as “about 40 μm” in data set [1] and “about 70 μm” in data set [2].
Take `COc1cc(/C=C/C(=O)CC(=O)/C=C/c2ccc(O)c(OC)c2)ccc1O` [curcumin]: the “permeability in the cancer tissue compared with the healthy mucosa tissue” value in data set [1] is recorded as “higher permeability”. In addition, the “depth to which the tissue is stained” value in data set [1] (5 min) is “about 40 μm”; in data set [2] (5 min) it was “about 20 μm”. For the same molecule, the “distribution of heavily stained cell group versus cell group with STAT3 highly expressed (anti-STAT3 antibody)” value in data set [3] is “coincides with the distribution of the cell group shown in the section (e) in the lower row and having the cancer-related gene product STAT3 highly expressed”.
